# Measured values published in patent publication US20250340885A1, “COMPOSITIONS AND METHODS FOR MODULATING CONDITIONS ASSOCIATED WITH ALTERED ATP8B1 FUNCTION” (CLEVELAND STATE UNIVERSITY, priority 2024, published 2025).
# Structures can show the parent of a compound that is named as a salt.
# How the values were obtained:
# ATP8B1 proteoliposomes = biological target: T1, ATP8B1 proteoliposomes (Homo sapiens, UniProt O43520); test: NBD-phospholipid flip in ATP8B1 proteoliposomes, sodium dithionite quenching assay; format: biochemical; details: proteoliposomes vs. empty liposomes
# T1 construct: The ATPase activity of full-length ATP8B1 was determined in the presence of various phospholipids; GST; made in house; host or cells: Sf9 insect cells (baculovirus)
# T1 sequence (O43520 1-1251): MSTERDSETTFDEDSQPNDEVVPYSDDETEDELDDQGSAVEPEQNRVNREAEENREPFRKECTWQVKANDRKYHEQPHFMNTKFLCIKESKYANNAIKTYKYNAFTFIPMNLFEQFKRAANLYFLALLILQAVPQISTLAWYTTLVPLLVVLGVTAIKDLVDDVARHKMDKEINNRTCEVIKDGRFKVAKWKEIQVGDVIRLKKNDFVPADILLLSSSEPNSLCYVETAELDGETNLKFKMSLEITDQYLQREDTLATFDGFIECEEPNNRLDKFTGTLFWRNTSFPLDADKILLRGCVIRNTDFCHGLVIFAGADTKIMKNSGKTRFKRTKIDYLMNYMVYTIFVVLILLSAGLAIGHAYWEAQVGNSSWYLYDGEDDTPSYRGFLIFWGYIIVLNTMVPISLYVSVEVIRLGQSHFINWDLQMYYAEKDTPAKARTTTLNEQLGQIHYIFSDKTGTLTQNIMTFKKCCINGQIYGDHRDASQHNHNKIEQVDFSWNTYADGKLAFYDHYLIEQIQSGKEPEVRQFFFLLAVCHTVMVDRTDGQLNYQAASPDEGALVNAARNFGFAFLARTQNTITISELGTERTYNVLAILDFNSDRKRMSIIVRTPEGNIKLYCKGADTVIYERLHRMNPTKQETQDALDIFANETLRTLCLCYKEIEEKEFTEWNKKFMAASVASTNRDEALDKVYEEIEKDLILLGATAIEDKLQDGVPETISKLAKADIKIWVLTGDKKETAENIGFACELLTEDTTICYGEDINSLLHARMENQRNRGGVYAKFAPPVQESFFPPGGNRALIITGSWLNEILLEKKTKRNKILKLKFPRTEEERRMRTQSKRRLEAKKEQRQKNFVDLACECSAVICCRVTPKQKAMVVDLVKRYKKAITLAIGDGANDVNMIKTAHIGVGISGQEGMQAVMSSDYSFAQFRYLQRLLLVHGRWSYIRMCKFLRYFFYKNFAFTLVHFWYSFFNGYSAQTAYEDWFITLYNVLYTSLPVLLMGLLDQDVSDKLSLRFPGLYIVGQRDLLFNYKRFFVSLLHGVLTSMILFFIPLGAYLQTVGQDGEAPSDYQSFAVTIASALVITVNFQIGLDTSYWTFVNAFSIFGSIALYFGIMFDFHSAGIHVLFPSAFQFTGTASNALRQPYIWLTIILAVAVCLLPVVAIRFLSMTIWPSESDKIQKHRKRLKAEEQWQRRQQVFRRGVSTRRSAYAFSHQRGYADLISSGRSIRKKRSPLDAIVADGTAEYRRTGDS
# Procedure: FIG. 8G is a schematic diagram for PIP2 flip assay in ATP8B1 proteoliposomes vs. empty liposomes.
# FIG. 8H is a graph showing sodium dithionite quenching of NBD-PIP2 on the outer side of the proteoliposomes vs. empty liposomes over 10 min, Triton-X-100 was used to quench all the remaining NBD-PIP2.
# FIG. 8I is a graph showing the percentage PIP2 flipped over time in proteoliposomes vs. empty liposomes±sodium dithionite, ±Triton-X-100, data are from 3 independent experiments, values are mean±SD, **** show p<0.0001 by t-test.
# FIG. 8J is a graph showing sodium dithionite quenching of NBD-PE on the outer side of the proteoliposomes vs. empty liposomes over 10 min, Triton-X-100 was used to quench the remaining inner leaflet NBD-PE.
# FIG. 8K is a bar graph showing the percentage PE flip over time in proteoliposomes vs. empty liposomes±Sodium dithionite, ±Triton-X-100. […]
# (§1) Next, we utilized reconstituted ATP8B1-proteoliposomes with NBD-labeled phospholipids and sodium dithionite quenching assay to measure phospholipid flip (FIG. 8G), as described before. A marked decrease in the fluorescence intensity of NBD-PIP2 was observed following dithionite quenching of ATP8B1 containing proteoliposomes vs. control liposomes, with ˜12% NBD-PIP2 flip in 5 min, ˜22% NBD-PIP2 flip in 30 min, and ˜27% NBD-PIP2 flipped in 60 min (FIG. 8H, 8I).
# [1] = test system: HepG2 cells (WT or ATP8b1−/−); test: Confocal-microscopy-based NBD-phospholipid flip assay with BSA back-exchange; format: cell-based, human; details: after BSA wash, up to 60 min
# Procedure: FIG. 8A is an image of WT or ATP8b1^−/− HepG2 cells pre-incubated with phospholipase inhibitors at 20° C. were supplemented with NBD-PIP2 followed by incubation for up to 60 min to allow lipid internalization. Cells were subjected to back-exchange with BSA, followed by TBSS wash, and visualization by confocal laser scanning microscopy. FIRE look-up table (ImageJ) was used to highlight intensity variations in PIP2 flip. Images are representative of three independent experiments. Scale bar: 20 μm.
# FIG. 8B is an image of WT or ATP8b1^−/− HepG2 cells pre-incubated with phospholipase inhibitors at 20° C. were supplemented with NBD-PE followed by incubation for up to 60 min to allow lipid internalization. Cells were subjected to back-exchange with BSA, followed by TBSS wash, and visualization by confocal laser scanning microscopy. FIRE look-up table (ImageJ) was used to highlight intensity variations in PIP2 flip. Images are representative of three independent experiments. Scale bar: 20 μm.
# FIG. 8C is a graph showing quantification of flipped NBD-PIP2 in WT and ATP8b1^−/− HePG2 cells (N=25 cells, values are mean±SD; **** show p<0.0001 by t-test.
# FIG. 8D is a graph showing quantification of flipped NBD-PE in WT and ATP8b1^−/− HePG2 cells (N=25 cells, values are mean±SD; **** show p<0.0001 by t-test. […]
# human ATP8B1 = biological target: T2, human ATP8B1 (Homo sapiens, UniProt O43520); test: Phospholipid-stimulated ATPase activity of full-length ATP8B1; format: biochemical
# T2 sequence (O43520 1-1251): T1 sequence (O43520 1-1251)
# Procedure: FIG. 8E is a bar graph showing ATPase activity of ATP8B1 in presence of various lipids (300 µM).
# FIG. 8F is a graph showing phospholipid concentration-dependent ATPase activity of ATP8B1. Graph representing data points of three independent experiments, values are mean±SD and fitted by a non-linear dose-dependent curve.
# ATP8B1 deletion may affect PIP2 translocation due to changes in membrane properties or by indirectly influencing the activity of other proteins involved in lipid trafficking. To determine if ATP8B1 can directly flip PIP2, a cell-free system was reconstituted. The GST-tagged human ATP8B1 protein was cloned in a baculovirus, followed by transduction of insect Sf9 cells, and expression was confirmed by western blot using anti-GST antibody.
# as §1
# GsdmD = biological target: T3, GsdmD (Homo sapiens, UniProt P57764); details: cited from earlier work
# T3 sequence (P57764 1-484): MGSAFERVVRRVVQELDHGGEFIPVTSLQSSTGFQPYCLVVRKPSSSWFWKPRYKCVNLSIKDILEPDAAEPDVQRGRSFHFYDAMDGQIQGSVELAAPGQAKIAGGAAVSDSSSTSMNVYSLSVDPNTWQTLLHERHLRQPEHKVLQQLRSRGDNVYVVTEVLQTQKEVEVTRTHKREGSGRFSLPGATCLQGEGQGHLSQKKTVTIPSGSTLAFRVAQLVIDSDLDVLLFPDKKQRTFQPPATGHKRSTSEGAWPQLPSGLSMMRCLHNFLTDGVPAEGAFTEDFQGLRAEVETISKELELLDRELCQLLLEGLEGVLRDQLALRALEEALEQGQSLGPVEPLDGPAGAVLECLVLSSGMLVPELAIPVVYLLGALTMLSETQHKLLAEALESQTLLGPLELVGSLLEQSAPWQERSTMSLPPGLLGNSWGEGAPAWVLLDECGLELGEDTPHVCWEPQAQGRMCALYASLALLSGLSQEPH
molecule,measurement,setting,value
NBD-PE,NBD-lipid flip,ATP8B1 proteoliposomes,No significant changes
same,flip of NBD-lipid in ATP8B1−/− vs. WT cells,[1],no differences
"CCCCCCCC/C=C\CCCCCCCC(=O)OC[C@H](COP(=O)(O)O[C@@H]1[C@H](O)[C@H](O)[C@@H](OP(=O)(O)O)[C@H](OP(=O)(O)O)[C@H]1O)OC(=O)CCCCCCC/C=C\CCCCCCCC [PIP2, phosphatidylinositol-4,5-bisphosphate]",ATPase activity of full-length ATP8B1,human ATP8B1; 300 μM lipid,notable increase in ATPase activity
phosphatidylcholine [PC],EC50 of stimulated activity of ATP8B1 relative to PIP2,human ATP8B1; higher than PIP2,1.75 fold
COC(=O)/C=C/C(=O)OC [dimethyl fumarate],effect on GsdmD,GsdmD,promotes succination of GsdmD
